Experimental data published in patent US20250313533A1, “QUINOLINE CARBOXYLIC ACID ESTER COMPOUND AND PREPARATION METHOD AND USE THEREOF” (priority 2019, published 2025).

Legend:
[1] = test system: pathogenic bacteria causing black rot in Chinese cabbages; experiment: In vitro bactericidal activity, black rot in Chinese cabbages; type: cell-based, xanthomonas; conditions: Xanthomonas, read-out: inhibitory rate; for inhibition at 1 ppm: dosage 1 ppm; for inhibition at 5 ppm: dosage 5 ppm
[2] = test system: bacterial wilt in tobacco; experiment: whole plant or invertebrate; conditions: Nicotiana tabacum, read-out: efficacy against bacterial wilt in tobacco
[3] = test system: pathogenic bacteria causing bacterial wilt in tobacco; experiment: whole plant or invertebrate; type: cell-based, ralstonia; conditions: read-out: inhibitory rate
[4] = test system: soft rot in Chinese cabbages; experiment: whole plant or invertebrate; conditions: 48 h, read-out: efficacy against soft rot in Chinese cabbages
bacterial blight in rice = experiment: whole plant or invertebrate; conditions: Oryza sativa, read-out: efficacy against bacterial blight in rice
[5] = test system: pathogenic bacteria causing fire blight in pears; experiment: In vitro bactericidal activity, fire blight in pears; type: cell-based, erwinia; conditions: Erwinia, read-out: inhibitory rate; for inhibition at 1 ppm: dosage 1 ppm; for inhibition at 5 ppm: dosage 5 ppm
cucumber seedlings = experiment: Safety for plant growth after application; type: in vivo; conditions: dosage 200 ppm
In short: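 Indoor potted cucumber seedlings were treated with the compounds, and crop safety was judged from effects on plant height growth rate, chlorophyll content and leaf area.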

[6] = test system: pathogenic bacteria causing fruit blotch in watermelons; experiment: In vitro bactericidal activity, fruit blotch in watermelons; type: cell-based, acidovorax; conditions: read-out: inhibitory rate; for inhibition at 1 ppm: dosage 1 ppm; for inhibition at 5 ppm: dosage 5 ppm
[7] = test system: pathogenic bacteria causing black shank in potatoes; experiment: In vitro bactericidal activity, black shank in potatoes; type: cell-based; conditions: read-out: inhibitory rate; for inhibition at 1 ppm: dosage 1 ppm; for inhibition at 5 ppm: dosage 5 ppm
[8] = test system: pathogenic bacteria causing bacterial wilt in cassava; experiment: organism not typed; type: cell-based; conditions: read-out: inhibitory rate
[9] = test system: fruit blotch in watermelons; experiment: whole plant or invertebrate; conditions: read-out: efficacy against fruit blotch in watermelons
[10] = test system: pathogenic bacteria causing bacterial angular leaf spot in cucumbers; experiment: In vitro bactericidal activity, bacterial angular leaf spot in cucumbers; type: cell-based, pseudomonas; conditions: read-out: inhibitory rate; for inhibition at 1 ppm: dosage 1 ppm; for inhibition at 5 ppm: dosage 5 ppm
[11] = test system: pathogenic bacteria causing bacterial blight in rice; experiment: whole plant or invertebrate; type: cell-based, xanthomonas; conditions: read-out: inhibitory rate
black shank in potatoes = experiment: Living crops in vivo protective activity, potatoes (root irrigation); conditions: Solanum tuberosum, read-out: efficacy against black shank in potatoes; for pest or weed control at 5 ppm: dosage 5 ppm; for pest or weed control at 10 ppm: dosage 10 ppm
Method: Root irrigation was carried out on the potatoes for tests according to the designed concentration of the agents. The dosage for each plant was 200 mL and was kept consistent (also for the control). The black shank bacteria were inoculated on the second day after the application. The results were investigated according to the disease condition.

[12] = test system: indoor potted cucumber seedlings; experiment: Effect of improving growth and development of crops; type: in vivo; parameters: Rate of growth rate increase (%): concentration or dose not given beside the values; conditions: versus blank control; for Rate of chlorophyll content increase (%) / Rate of leaf area increase (%): 14 days after application; for Rate of growth rate increase (%): plant height 14 days after application; for Rate of leaf area increase (%): second leaf
In short: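 Growth effects were scored as percent increases in height growth rate, second-leaf area and chlorophyll (SPAD meter), comparing values taken before and 14 days after application.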

[13] = test system: stem rot in sweet potatoes; experiment: whole plant or invertebrate; conditions: read-out: efficacy against stem rot in sweet potatoes
[14] = test system: pathogenic bacteria causing stem rot in sweet potatoes; experiment: In vitro bactericidal activity, stem rot in sweet potatoes; type: cell-based, dikia; conditions: read-out: inhibitory rate; for inhibition at 1 ppm: dosage 1 ppm; for inhibition at 5 ppm: dosage 5 ppm

With `CCOc1ccc2c(=O)c(C(=O)OCCOC)cn(C3CC3)c2c1` [Compound 342] the inhibition at 1 ppm [1] was ≥ 90%, the inhibition at 5 ppm [1] was ≥ 90% and the pest or weed control at 5 ppm [2] was ≥ 90%. For the same compound, the pest or weed control at 10 ppm [2] was ≥ 90%, the inhibition at 1 ppm [3] was ≥ 90% and the inhibition at 5 ppm [3] was ≥ 90%. The pest or weed control at 5 ppm [4] was ≥ 90%, the pest or weed control at 10 ppm [4] was ≥ 90% and the pest or weed control at 5 ppm (bacterial blight in rice) was ≥ 90%. The pest or weed control at 10 ppm (bacterial blight in rice) was ≥ 90%, the inhibition at 1 ppm [5] was ≥ 90% and the inhibition at 5 ppm [5] was ≥ 90%. The “safety for plant growth (discoloration, necrosis, wilt, malformation)” value (“safety for plant growth” below) (cucumber seedlings) was “safe for plant growth”, the inhibition at 1 ppm [6] was ≥ 90% and the inhibition at 5 ppm [6] was ≥ 90%. For the same compound, the inhibition at 1 ppm [7] was ≥ 90%, the inhibition at 5 ppm [7] was ≥ 90% and the inhibition at 1 ppm [8] was ≥ 90%. For the same compound, the inhibition at 5 ppm [8] was ≥ 90%, the pest or weed control at 5 ppm [9] was ≥ 90% and the pest or weed control at 10 ppm [9] was ≥ 90%. For the same compound, the inhibition at 1 ppm [10] was ≥ 90%, the inhibition at 5 ppm [10] was ≥ 90% and the inhibition at 1 ppm [11] was ≥ 90%. For the same compound, the inhibition at 5 ppm [11] was ≥ 90%, the pest or weed control at 5 ppm (black shank in potatoes) was ≥ 90% and the pest or weed control at 10 ppm (black shank in potatoes) was ≥ 90%. The “Rate of chlorophyll content increase (%)” value [12] was 9%, the “Rate of growth rate increase (%)” value [12] was 9% and the “Rate of leaf area increase (%)” value [12] was 11%. The pest or weed control at 5 ppm [13] was ≥ 90%, the pest or weed control at 10 ppm [13] was ≥ 90% and the inhibition at 1 ppm [14] was ≥ 90%. The inhibition at 5 ppm [14] was ≥ 90%.
In the case of `CCOc1cc2c(cc1F)c(=O)c(C(=O)OCCO)cn2C1CC1` [Compound 265], the inhibition at 1 ppm [1] is reported as ≥ 90%, the inhibition at 5 ppm [1] is reported as ≥ 90% and the pest or weed control at 5 ppm [2] is reported as ≥ 90%. For the same compound, the pest or weed control at 10 ppm [2] was ≥ 90%, the inhibition at 1 ppm [3] was ≥ 90% and the inhibition at 5 ppm [3] was ≥ 90%. The pest or weed control at 5 ppm [4] was ≥ 90%, the pest or weed control at 10 ppm [4] was ≥ 90% and the pest or weed control at 5 ppm (bacterial blight in rice) was ≥ 90%. For the same compound, the pest or weed control at 10 ppm (bacterial blight in rice) was ≥ 90%, the inhibition at 1 ppm [5] was ≥ 90% and the inhibition at 5 ppm [5] was ≥ 90%. For the same compound, the “safety for plant growth” value (cucumber seedlings) was “safe for plant growth”, the inhibition at 1 ppm [6] was ≥ 90% and the inhibition at 5 ppm [6] was ≥ 90%. For the same compound, the inhibition at 1 ppm [7] was ≥ 90%, the inhibition at 5 ppm [7] was ≥ 90% and the inhibition at 1 ppm [8] was ≥ 90%. The inhibition at 5 ppm [8] was ≥ 90%, the pest or weed control at 5 ppm [9] was ≥ 90% and the pest or weed control at 10 ppm [9] was ≥ 90%. For the same compound, the inhibition at 1 ppm [10] was ≥ 90%, the inhibition at 5 ppm [10] was ≥ 90% and the inhibition at 1 ppm [11] was ≥ 90%. The inhibition at 5 ppm [11] was ≥ 90%, the pest or weed control at 5 ppm (black shank in potatoes) was ≥ 90% and the pest or weed control at 10 ppm (black shank in potatoes) was ≥ 90%. The “Rate of chlorophyll content increase (%)” value [12] was 13%, the “Rate of growth rate increase (%)” value [12] was 12% and the “Rate of leaf area increase (%)” value [12] was 15%. The pest or weed control at 5 ppm [13] was ≥ 90%, the pest or weed control at 10 ppm [13] was ≥ 90% and the inhibition at 1 ppm [14] was ≥ 90%. For the same compound, the inhibition at 5 ppm [14] was ≥ 90%.
For `O=C(OCCO)c1cn(C2CC2)c2cc(N3CCOCC3)c(F)cc2c1=O` [Compound 425], the inhibition at 1 ppm [1] was ≥ 90%, the inhibition at 5 ppm [1] was ≥ 90% and the pest or weed control at 5 ppm [2] was ≥ 90%. For the same compound, the pest or weed control at 10 ppm [2] was ≥ 90%, the inhibition at 1 ppm [3] was ≥ 90% and the inhibition at 5 ppm [3] was ≥ 90%. For the same compound, the pest or weed control at 5 ppm [4] was ≥ 90%, the pest or weed control at 10 ppm [4] was ≥ 90% and the pest or weed control at 5 ppm (bacterial blight in rice) was ≥ 90%. The pest or weed control at 10 ppm (bacterial blight in rice) was ≥ 90%, the inhibition at 1 ppm [5] was ≥ 90% and the inhibition at 5 ppm [5] was ≥ 90%. The “safety for plant growth” value (cucumber seedlings) was “safe for plant growth”, the inhibition at 1 ppm [6] was ≥ 90% and the inhibition at 5 ppm [6] was ≥ 90%. The inhibition at 1 ppm [7] was ≥ 90%, the inhibition at 5 ppm [7] was ≥ 90% and the inhibition at 1 ppm [8] was ≥ 90%. For the same compound, the inhibition at 5 ppm [8] was ≥ 90%, the pest or weed control at 5 ppm [9] was ≥ 90% and the pest or weed control at 10 ppm [9] was ≥ 90%. For the same compound, the inhibition at 1 ppm [10] was ≥ 90%, the inhibition at 5 ppm [10] was ≥ 90% and the inhibition at 1 ppm [11] was ≥ 90%. The inhibition at 5 ppm [11] was ≥ 90%, the pest or weed control at 5 ppm (black shank in potatoes) was ≥ 90% and the pest or weed control at 10 ppm (black shank in potatoes) was ≥ 90%. The “Rate of chlorophyll content increase (%)” value [12] was 13%, the “Rate of growth rate increase (%)” value [12] was 10% and the “Rate of leaf area increase (%)” value [12] was 11%. The pest or weed control at 5 ppm [13] was ≥ 90%, the pest or weed control at 10 ppm [13] was ≥ 90% and the inhibition at 1 ppm [14] was ≥ 90%. For the same compound, the inhibition at 5 ppm [14] was ≥ 90%.
For `COCCOC(=O)c1cn(C2CC2)c2cc(OCC(F)(F)F)c(F)cc2c1=O` [Compound 292, 2-methoxyethyl 1-cyclopropyl-6-fluoro-4-oxo-7-(2,2,2-trifluoroethoxy)-1,4-dihydroquinoline-3-carboxylate], the inhibition at 1 ppm [1] was ≥ 90%, the inhibition at 5 ppm [1] was ≥ 90% and the pest or weed control at 5 ppm [2] was ≥ 90%. For the same compound, the pest or weed control at 10 ppm [2] was ≥ 90%, the inhibition at 1 ppm [3] was ≥ 90% and the inhibition at 5 ppm [3] was ≥ 90%. For the same compound, the pest or weed control at 5 ppm [4] was ≥ 90%, the pest or weed control at 10 ppm [4] was ≥ 90% and the pest or weed control at 5 ppm (bacterial blight in rice) was ≥ 90%. The pest or weed control at 10 ppm (bacterial blight in rice) was ≥ 90%, the inhibition at 1 ppm [5] was ≥ 90% and the inhibition at 5 ppm [5] was ≥ 90%. For the same compound, the “safety for plant growth” value (cucumber seedlings) was “safe for plant growth”, the inhibition at 1 ppm [6] was ≥ 90% and the inhibition at 5 ppm [6] was ≥ 90%. For the same compound, the inhibition at 1 ppm [7] was ≥ 90%, the inhibition at 5 ppm [7] was ≥ 90% and the inhibition at 1 ppm [8] was ≥ 90%. For the same compound, the inhibition at 5 ppm [8] was ≥ 90%, the pest or weed control at 5 ppm [9] was ≥ 90% and the pest or weed control at 10 ppm [9] was ≥ 90%. For the same compound, the inhibition at 1 ppm [10] was ≥ 90%, the inhibition at 5 ppm [10] was ≥ 90% and the inhibition at 1 ppm [11] was ≥ 90%. For the same compound, the inhibition at 5 ppm [11] was ≥ 90%, the pest or weed control at 5 ppm (black shank in potatoes) was ≥ 90% and the pest or weed control at 10 ppm (black shank in potatoes) was ≥ 90%. For the same compound, the “Rate of chlorophyll content increase (%)” value [12] was 16%, the “Rate of growth rate increase (%)” value [12] was 15% and the “Rate of leaf area increase (%)” value [12] was 15%. The pest or weed control at 5 ppm [13] was ≥ 90%, the pest or weed control at 10 ppm [13] was ≥ 90% and the inhibition at 1 ppm [14] was ≥ 90%. For the same compound, the inhibition at 5 ppm [14] was ≥ 90%.
